In test [1] the test system is Cortical neurone. Nature of the test: Neurotrophic activity in isolated embryonic mouse embryonic Cortical neurons assessed as induction of neurite outgrowth at 1 uM after 48 hrs relative to control. The class given is functional.
Test [2] relates to Cortical neurone. The experiment in a line: Neurotrophic activity in isolated embryonic mouse embryonic Cortical neurons assessed as induction of neurite outgrowth at 0.1 uM after 48 hrs relative to control. The class given is functional.
Test [3] can be described thus: Neurotrophic activity in isolated embryonic mouse brain Hippocampal neurons assessed as induction of neurite outgrowth at 1 uM after 48 hrs relative to control. It is filed as functional, Hippocampal neuron.
Another test relates to Hippocampal neuron. The experiment in a line: Neurotrophic activity in isolated embryonic mouse brain Hippocampal neurons assessed as induction of neurite outgrowth after 48 hrs relative to control. It is filed as functional.
Test [4] can be described thus: Neurotrophic activity in isolated embryonic mouse brain Hippocampal neurons assessed as induction of neurite outgrowth at 0.01 uM after 48 hrs relative to control. The class given is functional, Hippocampal neuron.
The nature of test [5]: Neurotrophic activity in isolated embryonic mouse brain Hippocampal neurons assessed as induction of neurite outgrowth at 0.1 uM after 48 hrs relative to control. It is filed as functional, Hippocampal neuron.
Test [6] concerns Cortical neurone. The experiment in a line: Neurotrophic activity in isolated embryonic mouse embryonic Cortical neurons assessed as induction of neurite outgrowth at 0.01 uM after 48 hrs relative to control. The class given is functional.
The subject of test [7] is Cortical neurone. Nature of the test: Neurotrophic activity in isolated embryonic mouse embryonic Cortical neurons assessed as induction of neurite outgrowth after 48 hrs relative to control. It is filed as functional.
In test [8] the target is T1, Choline O-acetyltransferase (Rattus norvegicus) (UniProt P32738).
T1 sequence (whole entry): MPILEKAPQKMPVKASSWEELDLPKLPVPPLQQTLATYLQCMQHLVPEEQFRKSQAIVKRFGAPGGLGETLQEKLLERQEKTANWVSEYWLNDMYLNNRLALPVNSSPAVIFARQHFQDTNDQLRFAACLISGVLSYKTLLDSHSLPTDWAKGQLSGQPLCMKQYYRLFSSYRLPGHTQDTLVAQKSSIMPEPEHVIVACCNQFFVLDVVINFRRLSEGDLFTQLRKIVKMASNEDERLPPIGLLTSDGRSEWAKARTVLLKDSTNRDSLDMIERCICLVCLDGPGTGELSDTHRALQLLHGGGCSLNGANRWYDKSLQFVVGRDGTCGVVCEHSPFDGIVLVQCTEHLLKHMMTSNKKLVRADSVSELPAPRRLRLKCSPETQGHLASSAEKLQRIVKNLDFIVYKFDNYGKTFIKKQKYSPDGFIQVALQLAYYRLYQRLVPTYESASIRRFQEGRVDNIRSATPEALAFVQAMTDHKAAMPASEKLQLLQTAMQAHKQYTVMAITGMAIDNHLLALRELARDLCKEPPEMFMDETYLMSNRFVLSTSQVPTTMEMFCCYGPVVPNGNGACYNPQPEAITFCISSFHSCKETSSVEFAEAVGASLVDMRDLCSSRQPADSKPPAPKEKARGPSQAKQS
Nature of the test: Increase in choline acetyltransferase activity in rat brain neurons at […] after 10 days relative to control. The class given is tissue-based.

For two compounds, Activity results are on record in ChEMBL document CHEMBL1817590, “Hippocampal and cortical neuronal growth mediated by the small molecule natural product clovanemagnolol” (2011).

For the compound `C=CCc1ccc(O)c(-c2cc(CC=C)ccc2O)c1` [MAGNOLOL], the Activity is -74.6% in the test with Cortical neurone [1]; 55.6% in the test with Cortical neurone [2]; -69% in test [3]; “Dose-dependent effect” in the test with Hippocampal neuron; 50.1% in [4]; 23.9% in test [5]. Further, the Activity with Cortical neurone [6] is 20.2%; with Cortical neurone [7] it was “Dose-dependent effect”.
With `C=CCc1ccc(O)c(-c2cc(CC=C)ccc2O[C@H]2CC(C)(C)[C@@H]3CC[C@]4(C)C[C@]23CC[C@H]4O)c1` [CLOVANEMAGNOLOL], the Activity with Cortical neurone [1] is -80.7%; with Cortical neurone [2], 22.7%; in [8] it was 142%; in [3], -83.9%; in the test on Hippocampal neuron it was “Dose-dependent effect”; in test [4], 62.8%. For the same compound, the Activity is 26.5% in test [5], 44.2% with Cortical neurone [6] and “Dose-dependent effect” in the test with Cortical neurone [7].
